Tests used:
TX synthase (TXS) = molecular target: T1, TX synthase (TXS) (Homo sapiens, UniProt P24557); experiment: TXB2 synthesis following addition of exogenous PGH2 to U937 cells; format: cell-based; details: 1, 10, 100 μM, undifferentiated U937 cells, PGH2 5 μM
T1 construct: endogenous in cells; host or cells: undifferentiated U937 cells
T1 sequence (P24557 1-533): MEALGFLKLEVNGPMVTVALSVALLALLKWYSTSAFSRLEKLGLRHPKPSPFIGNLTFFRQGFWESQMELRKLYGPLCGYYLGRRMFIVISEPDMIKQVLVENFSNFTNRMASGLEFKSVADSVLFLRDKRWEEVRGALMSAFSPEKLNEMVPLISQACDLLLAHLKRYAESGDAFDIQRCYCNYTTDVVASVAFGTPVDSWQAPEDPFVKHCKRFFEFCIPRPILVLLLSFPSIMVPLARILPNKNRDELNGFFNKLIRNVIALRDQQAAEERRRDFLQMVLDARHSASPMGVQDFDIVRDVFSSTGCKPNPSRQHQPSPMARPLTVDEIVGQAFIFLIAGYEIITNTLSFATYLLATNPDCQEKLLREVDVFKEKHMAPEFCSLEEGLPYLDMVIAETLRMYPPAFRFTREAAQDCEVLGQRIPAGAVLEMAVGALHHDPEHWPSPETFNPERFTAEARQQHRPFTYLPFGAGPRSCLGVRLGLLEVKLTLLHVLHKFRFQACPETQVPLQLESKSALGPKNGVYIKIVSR
Method: To examine effects of test compounds directly on TX synthase (TXS), a different assay system was used. Whereas arachidonic acid (AA) is the substrate for COX, PGH2 is the substrate for TX synthase. To examine directly the effect of these compounds on TXS, exogenous ? elow:
Test compounds at 0 μM, 1 μM, 10 μM and 100 μM (in DMSO) were incubated with undifferentiated U937 cells (6×10^6/ml) for 30 min at 37° C., after which PGH2 (5 μM) was added. After incubation for 10 min, the reaction was terminated by centrifugation and the supernatants were collected and TXB2 production was measured in triplicate by RIA. ANOVA followed by Newman-Keuls multiple comparisons test was used to examine differences between doses and the control values. A statistical significance level of 0.05 was used and differences from control values are indicated by an asterisk (*).

NFκB promoter activity = experiment: Inhibition of NFκB promoter activity (β-lactamase reporter) in TNFα-stimulated THP-1 cells; format: cell-based, human; details: 5 h
Method: Human macrophage THP-1 cells, modified to include the β-lactamase reporter gene, were seeded into wells of a 96-well plate (50×10^3 cells/well) in the presence of RPMI 1640 medium (70 μl). TNFα (7.5 ng/ml) and human sera (final concentration of 20%) were added to each well. Plates were incubated for 5 h at 37° C. to allow for NFkB-stimulated β-lactamase production. LiveBLAzer™ FRET B/G Substrate (CCF4-AM) was then added to assay for β-lactamase activity. Once CCFA-AM enters a cell, it is converted to negatively charged CCF4 by endogenous esterases. Excitation of this substrate at 409 nm leads to efficient FRET between the coumarin and fluorescein moieties, resulting in a green fluorescence detectable at 530 nm. The presence of β-lactamase leads to cleavage of CCF4 and results in a loss of FRET, resulting in a robust blue fluorescent signal detectable at 460 nm. Thus, activity of beta-lactamase (a marker of NFkB-promoter activity) is measured as a product to substrate ratio (blue/green fluorescence ratio: 460 nm/530 nm).

[1] = test system: inflammed rat air pouches (serum-treated zymozan); experiment: Rat air pouch assay; format: in vivo, rats (Dark Agouti); details: 0.5 ml of 100 μM into pouch; for Leucocytes in lavage fluid (×10^−7): lavage at 4 h
Method: An alternative assay used to measure anti-inflammatory efficacy is the air pouch model which involves the repeated subcutaneous injection of air into the dorsum of rats followed 24 h later by the intrapouch injection of an inflammatory stimulus (Gilroy et al. 1998).
Air pouches were raised on the dorsum of female Dark Agouti rats, approximately 7 weeks of age. To promote the formation of a cellular membrane lining the inside of each pouch, the pouches were maintained by re-inflating on days 2 and 5 after the initial injection of air. On re-inflation, the pouch was first deflated to ensure the needle was positioned correctly, before being re-inflated with 2 mL of sterile air. Using this protocol, the pouches remained inflated until use on day 7, when they were injected with 0.5 ml of either test compound at 100 μM or vehicle control. After 15 min, air pouches were injected with serum-treated zymozan (STZ-500 μg). Lavage of the air pouch (4×2 ml lavages) was performed at 4 h and leucocytes counted, after which the rats were killed, the air pouch excised and processed in formalin for histology. The sections were blinded to the person counting. Using a graticule with 100 squares and the 40× objective, the number of polymorphs were counted in the pouch lining at 10 different and non-adjacent sites. Group sizes were 5-6 rats. Data were analysed for statistical significance within each experiment and using an unpaired t test.

[2] = test system: AA-induced ear inflammation; experiment: Murine ear inflammation induced by arachidonic acid; format: in vivo, mice (BALB/c); details: for Increase in ear thickness (mean ± SD, ×0.01 mm): 25 mg/kg i/p, 1 hr post-AA application; for AA-induced ear inflammation / ear thickness compared with vehicle, in words: mouse, in vivo
From the text: Compounds were examined for their ability to inhibit ear swelling in mice induced by the topical application of arachidonic acid (AA). The inflammatory response due AA, the immediate precursor of the eicosanoids, is due to formation of AA metabolites via both the cyclooxygenase (COX) and lipoxygenase (LOX) pathways (Young et al. 1984). AA induces an increase in both PGE2 and LTC4 synthesis which precedes the increase in ear thickness (Opas et al. 1985; Chang et al. 1986).
Female BALB/c mice (ARC, WA, Australia), weighing 15-21 g were injected with Compound 2 delivered in polyethylene glycol (PEG) 400:phosphate buffered saline (PBS) 1:1 intraperitoneally (i/p) at a dose of 25 mg/kg either 30 min prior to or immediately before the application of AA to the ears. Mice were anaesthetized using isoflurane and baseline thickness of both ears was measured using a spring micrometer. Each mouse received a total of 20 μL of AA in ethanol (50 mg/ml) applied to the inner and outer surfaces of each pinna (i.e. 0.5 mg AA per ear). Mice were anaesthetized again to remeasure the ears at 1 hr post-AA application.
The difference in ear swelling pre- and post-application of AA for each ear was calculated, and the average for the two ears of each mouse calculated. The difference in mean swelling of each test group compared to the group given vehicle alone was calculated using a two-tailed unpaired t test (Prism 4, GraphPad Software).

DSS-induced colitis = experiment: Murine model of DSS-induced colitis; format: in vivo, mice (BALB/c); details: for ulceration of the posterior colon (mice affected): vehicle 3/8; for mean clinical score versus vehicle: Experiment 3, 11 (p=0.0252); for colonic inflammation, in words: series of experiments, 1.0-1.25 mg/kg single oral dose per day
Method: Female BALB/c mice, 6-7 weeks old, were housed for a minimum of one week before any experimental work began. To induce colitis, dextran sulphate sodium (DSS—molecular weight 40 kD, TdB Consultancy AB, Uppsala, Sweden (Dieleman et al. 1994), was administered fresh daily in the drinking water at a concentration of 4.5-5% for 5 days (Okayasu et al. 1990), after which water alone was given. This regime induced mild colitis, evidenced by diarrhea and rectal bleeding, the severity of which was scored, as well as a reduction in the length of the colon. Histologically, colonic inflammation was evidenced by ulceration and an infiltration of neutrophils into the mucosa, which was also scored. The systemic effect of the colitis causes weight loss, which was also monitored.
Either vehicle (PEG 400:PBS1:1) Compounds 1 or 4 were administered at a dose rate of 1 mg/kg throughout the experiment until the mice were killed at day 17.
Either Compounds 1 and 2, at a dose of 1 mg/kg or vehicle were administered for 10 days prior to DSS being added to the drinking water to induce colitis, after which test compound was stopped. DSS was administered for 5 days and the mice killed 8 days later (day 23).
Either the cis or the trans isomers of Compound 3 (Compound 3a and 3b respectively) at 1.25 mg/kg or vehicle were administered throughout the experiment until the mice were killed at day 17.

[3] = test system: NO synthesis in mouse macrophage cell line RAW 264.7; experiment: Inhibition of nitric oxide synthesis (Griess reaction); format: cell-based; details: 10 μM
Method: Exposure of various cells (e.g. macrophages and smooth muscle cells) to bacterial LPS and proinflammatory cytokines induces iNOS which generates NO. NO production can be indirectly quantified by measurement of nitrite (NO2—), a stable breakdown product of NO. The mouse macrophage cell line RAW 264.7 was cultured in DMEM supplemented with FCS, 2 mM glutamine and 50 U/ml penicillin/streptomycin. Cells were treated with either test compound at 10 μM (in 0.125% DMSO) or vehicle alone, together with 10 ng/ml LPS. After incubation for 24 hrs, culture media was collected and analysed immediately for NO concentration using the Griess reaction (Eigler et al. 1995).

[4] = test system: inflammed rat air pouches (serum-treated zymozan); experiment: Rat air pouch assay; format: in vivo, rats (Dark Agouti); details: At 1 mM application
[5] = test system: UV irradiation-induced skin oedema; experiment: Murine model of UV irradiation-induced skin oedema; format: in vivo, mice (Skh:hr-1 albino); details: for Increase in skin thickness (mean ± SD, ×0.01 mm): topical 0.2 ml of 20 μM at 30 min, 2 h, 4 h
From the text: Groups of 4-5 female Skh:hr-1 albino mice were irradiated with 1×3 MEdD (minimal edematous dose) of solar simulated UV radiation (SSUV). Solar-simulated ultraviolet radiation (SSUV) was provided by a planar bank of 6 UVA tube (Hitachi 40 W F40 T 10/BL, black light) and one UVB tube (Philips TL 40 W/12 RS) with radiation filtered through a sheet of 0.125 mm cellulose acetate (Eastman Chemical Products, Kingport, Term, USA) to give 2.96×10-4 W/cm2 UVA and 1.59×10-5 W/cm2 UVB. During irradiation, the cages were rotated below the lights to reduce the variation in radiation intensity in different positions.
Either test compound (0.2 ml of a 20 μM solution) or vehicle (propylene glycol/ethanol/water 1:2:1) was applied to the irradiated dorsal skin at 30 min, 2 h and 4 h post-irradiation. Dorsal skin fold measurements were made with a spring micrometer prior to and at 24 hr and 48 h post-UV exposure. The difference in skin thickness pre- and post-exposure to UVR was calculated for each mouse, and the differences examined between test compound and vehicle control were analysed using an unpaired two-tailed t test.

Compound	thromboxane synthase inhibition (TXB2 synthesis after exogenous PGH2), selectivity in words (TX synthase (TXS))	inhibition of NFκB compared to vehicle control (NFκB promoter activity)	Polymorphs in tissue sections (per 100 squares) ([1]; 4 h)	Leucocytes in lavage fluid (×10^−7) [1]	Increase in ear thickness (mean ± SD, ×0.01 mm) [2]	AA-induced ear inflammation / ear thickness compared with vehicle, in words [2]	colon length versus vehicle (DSS-induced colitis; Experiment 3, 1.25 mg/kg)	day of switch from mean body weight loss to mean body weight gain (DSS-induced colitis; Experiment 3, 1.25 mg/kg)	degree of mucosal damage versus vehicle (DSS-induced colitis; Experiment 3, 1.25 mg/kg)	colonic inflammation and its resolution, in words (DSS-induced colitis; Experiment 3, 1.25 mg/kg throughout until day 17)	ulceration of the posterior colon (mice affected) (DSS-induced colitis; Experiment 3, 1.25 mg/kg)	maximum mean weight loss (DSS-induced colitis; Experiment 3, 1.25 mg/kg, vehicle nearly 5%)	mean clinical score versus vehicle (DSS-induced colitis; days 8 (p=0.0078), 9 (p=0.0326), 10 (p=0.0386), 15 (p=0.0033), 16 (p=0.0016))	colonic inflammation, in words (DSS-induced colitis)	NO synthesis, direction of effect in words [3]	number of polymorphs in the tissue sections, in words [4]	Increase in skin thickness (mean ± SD, ×0.01 mm) ([5]; 24 hrs post-irradiation)	Increase in skin thickness (mean ± SD, ×0.01 mm) ([5]; 48 hrs post-irradiation)	UV-induced inflammation / skin oedema, in words ([5]; both time points (24 and 48 hrs), topical)	mean clinical score versus vehicle (DSS-induced colitis; days 8 (p=0.0055), 9 (p=0.0057), 17 (p=0.0177))
Cc1cc(O)cc2c1C(=O)C(c1ccc(O)cc1)CO2 (stereo not shown) [Compound 5]	selective thromboxane synthase inhibitors	significantly (p<0.001) inhibited																		
Cc1c(O)ccc2c1OCC(c1ccc(O)cc1)C2O (single isomer, unassigned) [Compound 3a]			17.9 ± 14.2 per 100 squares	0.47 ± 0.4 ×10^−7	6.7 ± 2.1 ×0.01 mm	significant reduction in ear thickness	significantly longer (p=0.039)	4 days	significantly lower (p=0.018)	reduced colonic inflammation and hastened its resolution	not observed	less than 2%	significantly lower	reduced colonic inflammation	inhibited NO synthesis	suppressed the number of polymorphs	32 ± 18 ×0.01 mm	69 ± 24 ×0.01 mm	significantly inhibited skin oedema	
Cc1c(O)ccc2c1OCC(c1ccc(O)cc1)C2O (single isomer, unassigned) [Compound 3b]				0.66 ± 0.23 ×10^−7	7.1 ± 3.0 ×0.01 mm	significant reduction in ear thickness					1/8			reduced colonic inflammation	inhibited NO synthesis		56 ± 14 ×0.01 mm	113 ± 25 ×0.01 mm		significantly lower
